For the assay, the system named is THP-1 Lucia ISG cells (interferon pathway). The assay is described as follows: Potency test of purified dimers on THP-1 Lucia ISG reporter cells. It is filed as cell-based, human. The following applies: for pEC50: three biological replicates, read-out: EC50, THP-1 Lucia interferon reporter; for Raw readings: replicates 1-3, duplicate wells. The method, then: Cells were pelleted (150g, 10 min) and resuspended in the growth medium (40% conditioned) at a density of 1 × 10^6 cells ml^−1. The cell suspension was dispensed (50 µl each well) into a lidded white 96-well plate (BrandTech 781665). Test compounds or DMSO control were diluted in the growth medium and sterilized by filtering through 0.22-µm polyethersulfone (PES) membranes (Merck SLGP033RS). […] Upon cooling down to room temperature, 50 µl of reconstituted luciferase substrate (InvivoGen QUANTI-Luc) was added to each well via the injector of the plate reader (Molecular Devices SpectraMax i3x), and the luminescence output was recorded (4 s delay, 0.1 s integration). Raw signals were divided by the averaged signal of the DMSO-treated control wells and reported in relative luminescence unit (RLU). The dose–response curve of each replicate was fitted individually using the standard 4PL model (GraphPad Prism). The EC50 value of each compound was averaged from three independent experiments and reported as mean ± s.e.m.

[1] abbreviates: Homo sapiens, THP1-Lucia ISG, 24 h.

pEC50: −log10 of the molar value. Several values for one entry are separate records, joined by “and”; a condition that tells them apart may be missing. Identical values can stand only once.

By pEC50 is commonly meant −log10 of the EC50, conventionally taken in molar units. Consider `COc1cc2cc(C(=O)CCC(=O)O)sc2cc1OC` [MSA2], for which the fold induction at 0.244141 µM (Homo sapiens, THP1-Lucia ISG, 24 h, Concentration 0.244141 μM, three replicates, read-out: Processed reporter response per replicate (reading relative to DMSO)) was 1.21. In addition, the fold induction at 0.976563 µM (Homo sapiens, THP1-Lucia ISG, 24 h, Concentration 0.976563 μM, three replicates, read-out: Processed reporter response per replicate (reading relative to DMSO)) is 1.26. In addition, the fold induction at 1.95312 µM (Homo sapiens, THP1-Lucia ISG, 24 h, Concentration 1.95312 μM, three replicates, read-out: Processed reporter response per replicate (reading relative to DMSO)) was 0.95. Moreover, where the note is “Homo sapiens, THP1-Lucia ISG, 24 h, Concentration 3.90625 μM, three replicates, read-out: Processed reporter response per replicate (reading relative to DMSO)”, the fold induction at 3.90625 µM was found to be 1.7. For the same molecule, the fold induction at 15.625 µM (Homo sapiens, THP1-Lucia ISG, 24 h, Concentration 15.625 μM, three replicates, read-out: Processed reporter response per replicate (reading relative to DMSO)) was found to be 316. Further, under “Homo sapiens, THP1-Lucia ISG, 24 h, Concentration 31.25 μM, three replicates, read-out: Processed reporter response per replicate (reading relative to DMSO)”, the fold induction at 31.25 µM was determined as 499. The fold induction at 62.5 µM (Homo sapiens, THP1-Lucia ISG, 24 h, Concentration 62.5 μM, three replicates, read-out: Processed reporter response per replicate (reading relative to DMSO)) worked out at 530. Further, the fold induction at 125 µM (Homo sapiens, THP1-Lucia ISG, 24 h, Concentration 125 μM, three replicates, read-out: Processed reporter response per replicate (reading relative to DMSO)) stood at 553. Further, the pEC50 under setting [1] was 4.82. Also, the “Raw readings” value was 644 RLU and 918 RLU and 1550 RLU and 217 RLU and 421 RLU (MSA2 0.244141 uM); 365 RLU and 407 RLU and 1564 RLU and 1732 RLU and 767 RLU and 301 RLU (MSA2 0.488281 uM); 533 RLU and 812 RLU and 1033 RLU and 1215 RLU and 1749 RLU and 577 RLU (MSA2 0.976563 uM); 558 RLU and 456 RLU and 1596 RLU and 1428 RLU and 16030 RLU and 391 RLU (MSA2 1.95312 uM); 737 RLU and 1083 RLU and 2552 RLU and 2286 RLU and 91800 RLU and 972 RLU (MSA2 3.90625 uM); 10329 RLU and 8090 RLU and 44667 RLU and 40124 RLU and 159658 RLU and 39192 RLU (MSA2 7.8125 uM). Also, the “Raw readings” value is, setting by setting: (MSA2 15.625 uM) 182029 RLU and 155323 RLU and 290195 RLU and 281155 RLU and 218467 RLU and 180884 RLU; (MSA2 31.25 uM) 283415 RLU and 249220 RLU and 393493 RLU and 394488 RLU and 219551 RLU and 327473 RLU; (MSA2 62.5 uM) 293238 RLU and 272508 RLU and 497557 RLU and 499850 RLU and 276937 RLU and 389453 RLU; (MSA2 125 uM) 315598 RLU and 275220 RLU and 511799 RLU and 524474 RLU and 276606 RLU and 386234 RLU.
`COc1cc2sc(C(=O)CCC(=O)O)cc2cc1SCCSc1cc2cc(C(=O)CCC(=O)O)sc2cc1OC` [SC2S]: the fold induction at 0.048828 µM (Homo sapiens, THP1-Lucia ISG, 24 h, Concentration 0.048828 μM, three replicates, read-out: Processed reporter response per replicate (reading relative to DMSO)) is 1.32. The fold induction at 1.5625 µM (Homo sapiens, THP1-Lucia ISG, 24 h, Concentration 1.5625 μM, three replicates, read-out: Processed reporter response per replicate (reading relative to DMSO)) amounted to 332. Further, for the setting “Homo sapiens, THP1-Lucia ISG, 24 h, Concentration 3.125 μM, three replicates, read-out: Processed reporter response per replicate (reading relative to DMSO)”, the fold induction at 3.125 µM was 425. Further, the fold induction at 6.25 µM (Homo sapiens, THP1-Lucia ISG, 24 h, Concentration 6.25 μM, three replicates, read-out: Processed reporter response per replicate (reading relative to DMSO)) was 434. Further, the fold induction at 12.5 µM (Homo sapiens, THP1-Lucia ISG, 24 h, Concentration 12.5 μM, three replicates, read-out: Processed reporter response per replicate (reading relative to DMSO)) is 407. Further, the pEC50 under setting [1] is 6.15. In addition, the “Raw readings” value (SC2S 0.024414 uM) is 620 RLU and 583 RLU and 1367 RLU and 1519 RLU and 365 RLU and 638 RLU; the “Raw readings” value (SC2S 0.048828 uM) was 577 RLU and 837 RLU and 1473 RLU and 1276 RLU and 668 RLU and 425 RLU; the “Raw readings” value (SC2S 0.097656 uM) is 783 RLU and 620 RLU and 2316 RLU and 2552 RLU and 1504 RLU and 372 RLU; the “Raw readings” value (SC2S 0.195313 uM) was 2302 RLU and 2526 RLU and 10005 RLU and 13263 RLU and 15158 RLU and 614 RLU; the “Raw readings” value (SC2S 0.390625 uM) was 13233 RLU and 15402 RLU and 73880 RLU and 85525 RLU and 96208 RLU and 759 RLU; the “Raw readings” value (SC2S 0.78125 uM) is 80951 RLU and 92499 RLU and 198651 RLU and 223105 RLU and 189225 RLU and 37417 RLU. For the same molecule, the “Raw readings” value is 175164 RLU and 179560 RLU and 265669 RLU and 303539 RLU and 222866 RLU and 166854 RLU (SC2S 1.5625 uM); 222262 RLU and 231080 RLU and 301434 RLU and 333311 RLU and 245937 RLU and 322808 RLU (SC2S 3.125 uM); 230364 RLU and 232723 RLU and 323434 RLU and 349356 RLU and 281517 RLU and 362047 RLU (SC2S 6.25 uM); 216991 RLU and 217865 RLU and 313187 RLU and 335098 RLU and 238105 RLU and 315297 RLU (SC2S 12.5 uM).

For the origin of these results see publication PMC12669040, “Tumour-specific STING agonist synthesis via a two-component prodrug system” (Nature Chemistry, 2025).
